Reference: patent US12156879B2, “Combining BACE1 inhibitors with mGluR agonists for Alzheimer's disease therapy” (University of Connecticut, priority 2019, dated 2024)
Each block holds one molecule with its values, some of them ahead of it.

Assays:
[1] = test system: Schaffer collateral (SC)-CA1 synapses; assay: LTP recordings on horizontal hippocampal slices (fEPSP amplitude after high-frequency stimulation); type: in vivo, mice; conditions: for LTP at SC-CA1 synapses: daily oral Verubecestat 3 mg/kg or Lanabecestat 0.5 mg/kg for 2-4 months; for potentiation at 30 minutes post-stimulation: slices from 4-6-month-old WT mice, Lanabecestat 0.5 mg/kg or Verubecestat 3 mg/kg, control slices 245.9±0.9864%
Method: (§1) C57BL/6 mice of either sex (4-6 months of age; n=6 per group) received vehicle or BACE1 inhibitors, Lanabecestat (AZD3293) solution at 0.25 mg/kg or 0.5 mg/kg) via oral gavage (Eketjall et al., 2016b). For Verubescstat, 3mg/kg dose was used and delivered orally via gavage (Kennedy et al., 2016). Treatment usually last 2-4 months. The mGluR1 positive allosteric modulator Ro0711401 at 10 mg/kg was given as intraperitoneal injections (IP) 1 hour before decapitation for LTP experiments (Notartomaso et al., 2013). For behavioral assays, Ro0711401 was deliver via IP injection at 12-hour intervals for 6-8 weeks. The mGluR1/5 positive allosteric modulator CHPG was mixed in aCSF and used during recording LTP. The drug was applied in a bath during baseline recording for at least for 30 minutes before HFS stimulation was applied and LTP was recorded (Le Duigou and Kullmann, 2011).
Acute brain slices were prepared as previously described (Hu et al., 2018). Briefly, the mice were decapitated and the brains were immersed in low-calcium artificial cerebrospinal fluid (aCSF) containing (in mM): 125 NaCl, 2.5 KCl, 10 glucose, 25 NaHCO3, 1.25 NaH2PO4, 0.4 L-ascorbic acid, 3 myo-inositol, 2 Na-pyruvate, 3 MgCl2 and 0.1 CaCl2 continuously bubbled with 95% O2 and 5% CO2 (pH≈7.3). Animals were decapitated with a guillotine and the brain was quickly removed to an ice-cold aCSF chamber with constant bubbling of 95% O2 and 5% CO2. Acute horizontal brain slices containing the hippocampus were obtained using a Campden 7000 smz-2 vibratome from 4-7-month-old mice at 350 μm thick. Slices were immediately transferred to an incubation beaker containing normal aCSF (same as the low-calcium aCSF except that 1 mM MgCl2 and 1, 1.2, or 2 mM CaCl2 were used) at 30° C., continuously bubbled with 95% O2 and 5% CO2. Slices were allowed to recover for 1 hour and then were transferred to an MED-64 recording chamber with the same aCSF solution at ≈30° C., maintained by MED ThermoConnector (Automate Scientific) with continuous aCSF perfusion at 2 ml/min.
LTP recordings on hippocampal slices were performed according to previously-described procedures (Shimono et al., 2002; Baba et al., 2003; Itoh et al., 2005). Upon obtaining horizontal hippocampal slices from the brains of mice, the prepared slices were then placed onto the center of an MED probe (MED-P515A; AutoMate™ Scientific) with continuous perfusion of aCSF and bubbling of 95% O2 and 5% CO2. The device has an array arranged in an 8×8 pattern of 64 planar microelectrodes across a hippocampal slice. Each electrode is 20×20 μm with an interelectrode distance of 150 μm. A MED-A64HE1S head amplifier and a MED-A64MD1 main amplifier, run by Mobius software, were used for data acquisition and analysis. SCs to CA1 synapses were typically analyzed for LTP assays. fEPSPs caused by stimulation were recorded at a 20-kHz sampling rate within the CA1 subregion of the hippocampus. Control fEPSPs were recorded for at least 10 min before the conditioning stimulation, using a response ˜50% of the maximum. After a stable baseline was established, LTP was induced with three trains of 100 Hz for 1 s with an intertrain interval F of 20 s. Field potential amplitudes were then measured. Data are expressed as mean±SEM. Synaptic strength was evaluated by measuring changes in the fEPSP amplitude relative to baseline. Statistics were calculated by Student's t tests.

[2] = cited from earlier work
[3] = test system: synaptic proteins PSD95, mGluR2, Synaptophysin in synaptosome fraction; assay: Western analysis of synaptic proteins in synaptosomes from treated animals; type: in vivo, mice; conditions: chronic treatment, Lanabecestat 0.5 mg/kg or Verubecestat 3 mg/kg
Method: as §1
Synaptosome isolation was performed using Thermo Scientific Syn-PER Synaptic Protein Extraction Reagent (cat #87793) from whole brain samples. Briefly, mice were sacrificed by live decapitation, and rapidly dissected hippocampi were homogenized in Syn-Per reagent, ˜1 ml/100 mg tissue. Samples were then centrifuged at 1200×g for 10 min. The resulting supernatant was then centrifuged at 15,000×g for 20 min. Pellets (synaptosomes) were resuspended in buffer B ([…] in 6 mm Tris, pH 8.0) with 1% SDS, briefly sonicated, and frozen in −80° C. Total protein extraction was performed according to previously-described procedures (Hu et al., 2007). Brain samples were homogenized in radioimmunoprecipitation assay (RIPA) buffer (50 mM Tris-HCl, pH 7.4, 1% NP-40, 0.25% sodium deoxycholate, 150 mM NaCl, 1 mM EDTA, 1 mM NaF, 1 mM Na3VO4, and a protease inhibitor cocktail [Roche]) and centrifuged at 13,200 rpm for 90 min. Equal amounts of protein were resolved on a NuPAGE Bis-Tris gel (Invitrogen) and transferred onto nitrocellulose membranes (Invitrogen). Subsequently, blots were incubated with primary antibodies 1:1,000 mGluR1 [AB_12551; Cell Signaling]; 1:1,000 PSD-95 [AB_36233; Cell Signaling]; 1:5,000 GluR1 [AB_05-855; Upstate]; 1:1,000 GluR2/3 [AB_07-598; Upstate]; 1:1,000 GluR4 [AB_06-308; Upstate]; 1:1,000 Homer [AB_8231; Cell Signaling]; 1:500 TMEM25 [AB_24361-1-AP; ProteinTech Group]; 1:1,000 Bassoon [AB_141021; Synaptic Systems]; 1:10,000 Actin [AB_A5441; Sigma], overnight at 4° C. After extensive washing, blots were reacted with HRP-conjugated secondary antibodies and visualized using enhanced chemiluminescence (Thermo Scientific).

[4] = test system: mice (WT BACE1+/+ or BACE1-null); assay: Y maze spontaneous alternation task; type: in vivo
Text: (§2) Treatment usually last 2-4 months. […] For behavioral assays, Ro0711401 was deliver via IP injection at 12-hour intervals for 6-8 weeks. The mGluR1/5 positive allosteric modulator CHPG was mixed in aCSF and used during recording LTP.
The symmetrical Y maze made of acrylic consists of three arms separated by 120 degrees. Each arm is 40 cm long, 17 cm high, 4 cm wide at the bottom and 13 cm wide at the top. Each mouse was placed in the center of the Y maze and was allowed to explore freely through the maze during a 5 min session. The sequence and total number of arms entered was recorded. Arm entry was considered to be completed when the hind paws of the mouse had been completely placed in the arm. Percentage of alternations is the number of triads containing entries into all three arms divided by the maximum possible alternations (the total number of arms entered minus 2)×100. Statistics were calculated by Student's t tests.

[5] = test system: mice (WT BACE1+/+ or BACE1-null); assay: Open field test; type: in vivo
Method: as §2
Each subject was released in the middle of the arena and observed for 10 minutes. Performance in the open field was recorded by a computer-based video tracking system (Any maze™ software, San Diego instruments, USA). Activity measures included distance traveled, percentage of time spent in corners vs. the center of the arena, and speed of movement during active exploration. The number of entries to the central zone of the open field was also recorded. Statistics were calculated by Student's t tests.

WT (BACE1+/+) mice = assay: Fear conditioning studies; type: in vivo; conditions: Lanabecestat 0.5 mg/kg or Verubecestat 3 mg/kg, N=10
[6] = test system: mice (WT BACE1+/+ or BACE1-null); assay: Morris water maze; type: in vivo
Method: as §2
The Morris water maze test was used to assess cognitive impairment. The apparatus consisted of a white circular tank (120 cm in diameter and 40 cm deep) filled with warm water (22° C.). The water was made to appear opaque using white nontoxic paint. A transparent platform (8 cm in diameter) was located in the middle of the southwest quadrant. Mice were subjected to four consecutive trials each day over a 3-day training period (with a flag attached to the platform) and then again for 5 days (no flag attached to platform) and the platform was submerged 0.5 cm below the water surface. Each mouse was released from four different positions around the perimeter of the tank (north, northwest, east, and southeast). In each trial, every mouse was allowed to swim until it found the platform (for a maximum of 60 s) and was subsequently left on the platform for 20 s between trials. If the platform was not found in 60 s, the mouse was guided to the platform and remained there for 20 s. The escape latency to find the hidden platform was automatically recorded using a video tracking system (Any-maze, San Diego instruments). At the end of the training on the eighth day, a probe test was conducted for […] on the 9th day. The platform was removed; each was released from the northeast quadrant and was allowed to swim for 60 s. Memory retention was measured by quantifying the time spent in the target quadrant, the number of entries made into the southwest quadrant, and the number of crossings over the previous platform location. Statistics were calculated by Student's t tests. Values are expressed as mean±SEM.

[7] = 12 months old BACE1+/+ mice, ~50 days
[8] = WT mice, Lanabecestat 0.5 mg/kg or Verubecestat 3 mg/kg for ~2 months (FIG. 6)
[9] = WT mice, Lanabecestat 0.5 mg/kg ~2 months (FIG. 6)
[10] = BACE1-null mice, 10 mg/kg i.p. every 12 hours, vs mock treatment

SMILES: NC(C(=O)O)c1cc(O)ccc1Cl (racemic) [CHPG, (RS)-2-Chloro-5-hydroxyphenylglycine]
LTP response vs mock treated slices ([1]; BACE1-null slices pre-treated with 125 nM for 30 min): significantly improved | LTP response vs mock treatment ([1]; CHPG bath on slices from WT mice treated with Lanabecestat 0.5 mg/kg for 60 days): slightly improved | LTP response vs mock treatment ([1]; CHPG bath on slices from WT mice treated with Verubecestat 3 mg/kg for 60 days): markedly improved | brain penetrability [2]: non-brain penetrable

total entry, BACE1 inhibitor alone [4, 7]: more significant | % of spontaneous alteration, BACE1 inhibitor alone vs mock treatment ([4]; 12 months old BACE1+/+ mice, ~50 days, Verubecestat 3 mg/kg or Lanabecestat 0.5 mg/kg oral, not statistically significant): reduction | number of arm entries [4, 8]: clearly reduced | spontaneous alternations [4, 8]: clearly reduced | distance traveled on the open field, BACE1 inhibitor alone [5, 7]: traveled more distances | speed on the open field, BACE1 inhibitor alone [5, 7]: faster | stay in the corner of the open field area vs mock-treated controls ([5]; BACE1 inhibitor alone, ~50 days): stayed more in the corner | speed [5, 9]: clear increase | total distance covered [5, 9]: clear increase | exploratory behaviors, time in corners vs center ([5]; WT mice, ~2 months treatment (FIG. 6)): less exploratory behaviors | freezing time, contextual phase (WT (BACE1+/+) mice): significant reduction | freezing time, cue phase (WT (BACE1+/+) mice): significant reduction
SMILES: CC#Cc1cncc(-c2ccc3c(c2)[C@@]2(N=C(C)C(N)=N2)[C@]2(CC[C@@H](OC)CC2)C3)c1 [Lanabecestat]
LTP reduction at lower dose ([1]; WT mice, Lanabecestat 0.25 mg/kg, compared with 0.5 mg/kg): significantly weaker LTP reduction | LTP at SC-CA1 synapses ([1]; WT mice): strongly suppressed | potentiation at 30 minutes post-stimulation [1]: 105.6±0.6137% | PSD95 level in synaptosome fraction [3]: significant decrease | Synaptophysin level in synaptosome fraction [3]: significant decrease | mGluR2 level in synaptosome fraction [3]: significant decrease | brain penetrability [2]: brain-penetrable

SMILES: O=C(Nc1nc(C(F)(F)F)co1)C1c2ccccc2Oc2ccccc21 [Ro0711401, N-[4-(trifluoromethyl)-1,3-oxazol-2-yl]-9H-xanthene-9-carboxamide]
LTP from acutely-sectioned brain slices vs vehicle ([1]; 4-6 month old BACE1-null mice, 10 mg/kg i.p. one hour before sacrifice): significantly enhanced | LTP after chronic treatment ([1]; BACE1-null mice, Ro0711401 10 mg/kg i.p. every 12 hours for about two months, after the behavioral tests): significantly elevated to the level close to that of WT mice | total numbers of arm entries (entrance performance) ([4]; BACE1-null mice, 10 mg/kg i.p. every 12 hours, about 45 days): improved entrance performance | changes in percentage of spontaneous alternation among groups ([4]; WT, BACE1-null and BACE1-null with Ro0711401): not obvious | time spent in the center of the open field ([5]; BACE1-null mice after the treatment): more time spent in the center | average speed in the open field arena [5, 10]: lowered | total distance covered in the open field arena [5, 10]: lowered | number of entries made to the platform quadrant ([6]; 9th day probe, BACE1-null treated, WT 6.364±0.5094, BACE1-null 3.700±0.5385): 4.900±0.6403 | time to reach the platform, habituation day 3 ([6]; BACE1-null+Ro0711401 mice, BACE1-null 31.56±3.432 s, WT 8.098±1.318 s): 18.20 ± 3.203 s | time to reach the platform, habituation day 1 ([6]; BACE1-null+Ro0711401 mice, BACE1-null 41.32±3.131 s, WT 21.99±2.986 s): 24.88 ± 2.935 s | average distance covered to reach the platform over the trials ([6]; habituation and training phases, BACE1-null 3.872±0.7645, WT 1.205±0.2805): 1.909±0.3878 meters | average duration to reach the platform of untreated BACE1-null mice relative to BACE1-null mice treated with Ro0711401 ([6]; training phase, 5 days, submerged platform, all trial days): significantly higher | brain penetrability [2]: brain-penetrable

SMILES: CN1C(N)=N[C@](C)(c2cc(NC(=O)c3ccc(F)cn3)ccc2F)CS1(=O)=O [Verubecestat]
LTP at SC-CA1 synapses ([1]; WT mice): significantly reduced | potentiation at 30 minutes post-stimulation [1]: 113.1±1.353% | PSD95 level in synaptosome fraction [3]: significant decrease | Synaptophysin level in synaptosome fraction [3]: significant decrease | mGluR2 level in synaptosome fraction [3]: significant decrease | brain penetrability [2]: brain-penetrable
